Results from US20150258108A1 (priority 2014, published 2015).
Values joined by “and” are separate entries in the source; they are usually repeats but may differ in a detail not shown here. Equal values may be shown once. Read-outs that look alike come from different tables or passages of the source. Marks after values point to notes of the source that are not given here.

Legend:
human OPRM [1] = target: T1, human OPRM (Homo sapiens, UniProt P35372); set-up: expressed in transfected cells; host or cells: CHO-K1 (cell lines provided by Dr. Toll, Torrey Pines Institute); conditions: cited from earlier work
[2] = tested on: human OPRK (κ-opioid receptor); test: biochemical; format: binding
[3] = target: T2, human OPRM (μ-opioid receptor) (Homo sapiens, UniProt P35372); conditions: cited from earlier work
calf OPRK = calf OPRK (Bos taurus, UniProt Q2KIP6); conditions: calf receptor, literature; cited from earlier work
[4] = target: T3, human OPRK (κ-opioid receptor) (Homo sapiens, UniProt P41145); test: biochemical; format: binding; conditions: for Ki: read-out: Ki
T3 construct: purchased PerkinElmer Life Sciences (Boston, Mass.)

OPRK [5] = target: T4, OPRK (Homo sapiens, UniProt P41145); test: biochemical; set-up: purchased PerkinElmer Life Sciences (Boston, Mass.)
human OPRM [6] = target: T1, human OPRM; test: biochemical; format: biochemical; set-up: expressed in transfected cells; host or cells: CHO-K1 (cell lines provided by Dr. Toll, Torrey Pines Institute)
[7] = target: T2, human OPRM (μ-opioid receptor); test: biochemical; format: binding; set-up: expressed in transfected cells; host or cells: CHO-K1 (cell lines provided by Dr. Toll, Torrey Pines Institute)
calf OPRM = calf OPRM (Bos taurus, UniProt P79350); conditions: calf receptor, literature, cited from earlier work
[8] = target: OPRD: opioid receptor delta (Bos taurus, UniProt F1N083); conditions: literature (Pearl, Herrick-Davis et al. 1995); cited from earlier work
OPRK [9] = target: T4, OPRK; test: cell-based; set-up: host or cells: CHO-K1; conditions: OPRK, inhibitory component; pKi-pKe
[10] = Ascending single-dose pharmacokinetics of noribogaine in healthy volunteers; conditions: for Cmax / Tmax / AUC0-216 / AUC0-∞ / t1/2: fasted healthy males, mean (SD), n = 6
human OPRM [11] = target: T1, human OPRM; test: cell-based; format: cell-based; set-up: host or cells: CHO-K1
[12] = OPRK, [3H]-U69,593 binding, This work
[13] = 30 mg noribogaine single oral dose
[14] = 30 mg noribogaine single oral dose, plasma
[15] = 60 mg noribogaine single oral dose
[16] = 60 mg noribogaine single oral dose, plasma

T1 sequence (P35372 whole entry): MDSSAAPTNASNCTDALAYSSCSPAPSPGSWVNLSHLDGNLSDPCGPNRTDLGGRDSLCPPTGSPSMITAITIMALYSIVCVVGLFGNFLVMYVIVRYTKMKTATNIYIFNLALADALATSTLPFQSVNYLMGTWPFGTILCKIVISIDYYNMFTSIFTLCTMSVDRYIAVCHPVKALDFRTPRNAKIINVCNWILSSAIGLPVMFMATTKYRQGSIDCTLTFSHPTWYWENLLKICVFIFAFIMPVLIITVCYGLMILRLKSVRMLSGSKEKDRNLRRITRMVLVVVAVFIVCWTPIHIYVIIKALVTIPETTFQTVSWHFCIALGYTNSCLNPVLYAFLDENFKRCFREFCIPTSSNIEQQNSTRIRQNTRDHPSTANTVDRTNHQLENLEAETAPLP
T2 sequence (P35372 whole entry): as above
T4 sequence (P41145 whole entry): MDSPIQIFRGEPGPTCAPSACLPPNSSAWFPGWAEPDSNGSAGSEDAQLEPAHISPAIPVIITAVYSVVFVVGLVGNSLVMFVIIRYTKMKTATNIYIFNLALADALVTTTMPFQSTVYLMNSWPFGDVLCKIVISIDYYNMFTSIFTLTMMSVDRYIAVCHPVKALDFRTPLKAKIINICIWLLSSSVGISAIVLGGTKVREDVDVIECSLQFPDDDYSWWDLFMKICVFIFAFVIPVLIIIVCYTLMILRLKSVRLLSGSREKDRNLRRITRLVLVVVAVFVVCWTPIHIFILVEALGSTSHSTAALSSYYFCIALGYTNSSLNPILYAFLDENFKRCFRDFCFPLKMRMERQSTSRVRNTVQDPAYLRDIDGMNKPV
T3 sequence (P41145 whole entry): as above
Chain of calf OPRM (P79350 whole entry): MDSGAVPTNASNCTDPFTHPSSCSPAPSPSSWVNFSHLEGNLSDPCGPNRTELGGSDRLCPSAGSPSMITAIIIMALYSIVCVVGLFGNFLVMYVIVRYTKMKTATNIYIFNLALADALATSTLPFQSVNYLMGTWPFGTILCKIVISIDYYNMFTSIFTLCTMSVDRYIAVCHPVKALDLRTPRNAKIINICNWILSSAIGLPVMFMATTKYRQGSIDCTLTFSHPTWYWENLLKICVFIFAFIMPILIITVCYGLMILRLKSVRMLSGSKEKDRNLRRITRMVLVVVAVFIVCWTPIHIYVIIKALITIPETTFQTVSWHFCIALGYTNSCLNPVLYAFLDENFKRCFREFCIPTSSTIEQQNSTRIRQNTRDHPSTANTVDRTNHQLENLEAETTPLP
Chain of calf OPRK (Q2KIP6 whole entry): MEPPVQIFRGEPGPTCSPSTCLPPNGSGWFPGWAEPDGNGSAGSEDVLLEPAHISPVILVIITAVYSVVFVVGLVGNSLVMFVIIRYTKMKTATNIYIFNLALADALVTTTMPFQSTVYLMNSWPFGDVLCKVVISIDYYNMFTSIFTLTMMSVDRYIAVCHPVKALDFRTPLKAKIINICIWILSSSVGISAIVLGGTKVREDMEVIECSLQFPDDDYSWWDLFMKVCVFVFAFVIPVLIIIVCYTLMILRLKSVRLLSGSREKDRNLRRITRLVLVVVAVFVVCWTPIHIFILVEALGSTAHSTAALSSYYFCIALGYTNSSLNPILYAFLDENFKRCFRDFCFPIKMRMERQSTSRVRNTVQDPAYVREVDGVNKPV
Chain of OPRD: opioid receptor delta (F1N083 1-372): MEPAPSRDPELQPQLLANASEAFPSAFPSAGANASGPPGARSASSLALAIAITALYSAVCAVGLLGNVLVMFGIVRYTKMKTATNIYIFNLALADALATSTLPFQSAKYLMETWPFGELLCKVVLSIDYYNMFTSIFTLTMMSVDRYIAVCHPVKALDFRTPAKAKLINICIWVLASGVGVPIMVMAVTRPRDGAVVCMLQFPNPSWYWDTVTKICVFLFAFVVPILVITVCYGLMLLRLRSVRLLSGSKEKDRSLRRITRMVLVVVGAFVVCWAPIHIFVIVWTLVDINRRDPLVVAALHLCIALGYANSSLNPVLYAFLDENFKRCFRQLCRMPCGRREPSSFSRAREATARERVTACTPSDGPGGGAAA

NC(N)=Nc1ccc2c3c([nH]c2c1)[C@@H]1Oc2c(O)ccc4c2[C@@]12CCN(CC1CC1)[C@H](C4)[C@]2(O)C3 [6′GNTI]
EC50 (human OPRM [1]; OPRM, activation, literature): > 1000 nM
Efficacy (human OPRM [1]; OPRM, activation, literature): 0~ %
Specificity ΔpKi ([2]; ΔpKi = pKi(OPRK)-pKi(OPRM)): 1.84
Ki [3]: 82 nM
pKi [3]: 7.1

COCC[C@H]1CC2CN3CCc4c([nH]c5ccccc45)[C@](C(=O)OC)(C2)[C@H]13 [18-MC, 18-methoxycoronaridine]
Ki (calf OPRK): 5100 nM
pKi (calf OPRK): 5.3*
affinity at human OPRK versus OPRM ([2]; this work): equi-affine
pKi [4, 12]: 5.7*
Ki [4, 12]: 1800 nM
Ki ([4]; human OPRK, [3H]-U69,593): 1840 ± 120 nM
reported selectivity at OPRM [3]: 5 ×
Efficacy (Emax) (OPRK [5]): <5%
pEC50 (OPRK [5]): 4.8
pEC50, (Ke): pKe (OPRK [5]): 5.3
stimulation of [35S]GTPγS binding to OPRK (OPRK [5]): failed to stimulate
EC50 (OPRK [5]; read-out: EC50): ~16000 nM
Efficacy (Emax) (human OPRM [6]): <5%
stimulation of the OPRM G-protein pathway (human OPRM [6]): failed to stimulate
pKi [7]: 5.6*
Ki ([7]; read-out: Ki): 2260 nM and 2360 nM
Ki (calf OPRM; read-out: Ki): 1100 nM
pKi (calf OPRM): 6.0*

C[C@@H](NC(=O)[C@@H](N)Cc1ccc(O)cc1)C(=O)NCC(=O)N(C)[C@@H](Cc1ccccc1)C(=O)NCCO [DAMGO, [D-Ala2, NMe-Phe4, Gly-ol5]-enkephalin]
Specificity ΔpKi ([2]; ΔpKi = pKi(OPRK)-pKi(OPRM)): <−3

CC[C@H]1CC2C[C@H]3c4[nH]c5ccc(OC)cc5c4CCN(C2)C13 [Ibogaine, reference compound]
Ki at OPRD [8]: N.Q.)
stimulation of the OPRM G-protein pathway (human OPRM [6]): failed to stimulate
Emax (human OPRM [6]; read-out: Efficacy (Emax)): -2.9%
Ki [7]: 6920 ± 830 nM
Ki (calf OPRM): 11000 nM
pKi (calf OPRM): 5.0*

C=C1CC[C@@]2(O)[C@H]3Cc4ccc(O)c5c4[C@@]2(CCN3CC2CC2)[C@H]1O5 [Nalmefene, reference compound]
Specificity ΔpKi ([2]; ΔpKi = pKi(OPRK)-pKi(OPRM)): 1.1

Oc1ccc2c3c1O[C@H]1c4[nH]c5c(c4C[C@@]4(O)[C@@H](C2)N(CC2CC2)CC[C@]314)C[C@@]1(O)[C@H]2Cc3ccc(O)c4c3[C@@]1(CCN2CC1CC1)[C@H]5O4 [NorBNI, nor-binaltorphimine, reference compound]
Specificity ΔpKi ([2]; ΔpKi = pKi(OPRK)-pKi(OPRM)): 2.0
e-coupling (OPRK [9]): 0.27

CC[C@H]1C[C@@H]2C[C@H]3c4[nH]c5ccc(OC6OC(C(=O)O)C(O)C(O)C6O)cc5c4CCN(C2)[C@@H]13 (stereo partly shown) [Noribogaine glucuronide]
Cmax [10, 13]: 1.8 (0.6) ng/ml
Tmax [10, 13]: 3.0 (0.6) hr
AUC0-216 [10, 14]: 25.7 (9.1) ng · hr/ml
AUC0-∞ [10, 14]: 25.8 (9.3) ng · hr/ml
t1/2 [10, 14]: 20.6 (4.9) hr
Cmax [10, 15]: 4.1 (1.2) ng/ml
Tmax [10, 15]: 3.8 (1.2) hr
AUC0-216 [10, 16]: 65.0 (21.5) ng · hr/ml
AUC0-∞ [10, 16]: 67.1 (21.9) ng · hr/ml
t1/2 [10, 16]: 23.1 (3.0) hr
time of peak concentrations after oral noribogaine dosing ([10]; across dose groups, healthy volunteers): 3 to 4 h
Mean half-life ([10]; across dose groups, healthy volunteers, plasma): 21 to 23 h
proportion of noribogaine glucuronide Cmax and AUC relative to noribogaine ([10]; both dose groups (30 mg, 60 mg)): 3-4%
time by which detected in all subjects ([10]; plasma, 30 mg and 60 mg noribogaine dose groups): ≤ 0.75 h

[Met]-Enkephalin [reference compound]
Efficacy (human OPRM [1]): ~95%
Efficacy (human OPRM [11]): 100%
e-coupling (human OPRM [11]): 1.94
Specificity ΔpKi [2]: <−3
e-coupling (human OPRM [6]): 1.8
